ChEMBL document CHEMBL1151596, “7-Oxa[2.2.1]bicycloheptane-2,3-dicarboxylic acid derivatives as phosphatase inhibitors” (Bioorg Med Chem Lett, 1997)

Tests used:
[1] = Effect on the transcription and release of thymidine kinase in a reporter-gene assay (RGA); assay type: functional
[2] = Compound was tested for inhibition of protein phosphatase 2A (PP2A)
Jurkat = test: Effect on the transcription and release of IL-2 in a reporter-gene assay (RGA); assay type: functional, cell-based; details: Homo sapiens
[3] = Compound was tested for inhibition of protein phosphatase 2B (PP2B, Calcineurin)
T-cell = test: Compound was tested for inhibition of IL-2 secretion in mouse T cell line; assay type: functional, cell-based
[4] = Compound was tested for inhibition of […] ([…])

IC50 (T-cell) [µM] | Structure (SMILES) | IC50 [1] [µM] | Ki [2] [µM] | IC50 (Jurkat) [µM] | Ki [3] [µM] | IC50 [4] [µM] | IC50 [2] [µM]
 | O=C(O)[C@@H]1[C@H](C(=O)O)[C@H]2CC[C@@H]1O2 | 42 | 0.17 | > 100 | 3.02 |  | 
5 | CN(C)C(=O)[C@H]1[C@@H](C(=O)O)[C@@H]2CC[C@H]1O2 | 100 | 0.18 | 4.7 | 2.78 |  | 
 | CCOC(=O)[C@@H]1[C@H](C(=O)OCC)[C@H]2CC[C@@H]1O2 |  |  |  | > 100 |  | 
 | COC(=O)[C@H]1[C@@H](C(=O)O)[C@@H]2CC[C@H]1O2 (single isomer, unassigned) |  |  |  | > 100 |  | 
 | C[C@@]12C(=O)OC(=O)[C@]1(C)[C@H]1CC[C@@H]2O1 [CANTHARIDIN] |  | 0.065 |  | 10.8 |  | 
 | C/C=C/C[C@@H](C)[C@@H](O)[C@H]1C(=O)N[C@@H](CC)C(=O)N(C)CC(=O)N(C)[C@@H](CC(C)C)C(=O)N[C@@H](C(C)C)C(=O)N(C)[C@@H](CC(C)C)C(=O)N[C@@H](C)C(=O)N[C@H](C)C(=O)N(C)[C@@H](CC(C)C)C(=O)N(C)[C@@H](CC(C)C)C(=O)N(C)[C@@H](C(C)C)C(=O)N1C [CYCLOSPORINE] |  |  | 0.008 |  |  | 
 | O=C1OC(=O)[C@H]2[C@@H]1[C@@H]1CC[C@H]2O1 [DEMETHYL-CANTHARIDIN] | 100 | 0.2 | > 22 | 3.33 | 5 | 0.97
